According to patent US20220169632A1, “METHODS AND MATERIALS FOR INCREASING OR MAINTAINING NICOTINAMIDE MONONUCLEOTIDE ADENYLYL TRANSFERASE-2 (NMNAT2) POLYPEPTIDE LEVELS” (University of Pittsburgh - Of the Commonwealth System of …, priority 2019, published 2022):

Tested on: NMNAT2
Assay: NMNAT2-Hibit nano-luciferase activity in stably transfected U87MG cells, various concentrations, 24 hours
Assay type: cell-based
Settings: U87MG cells stably transfected with NMNAT2-Hibit luc plasmid
Protocol: Selected compounds were tested in vitro. U87MG cells were stably transfected with NMNAT2-Hibit luc plasmid. Cells were treated with a test compound at various concentrations for 24 hours. Cells were then collected and assayed for nano-luciferase activity.

| SMILES | E: compound efficacy for NMNAT2 activation (concentration giving >25% increase in NMNAT2 luciferase activity) |
| --- | --- |
| O=C(Cn1c2c(c3ccccc31)CC(C(=O)NCc1cccnc1)CC2)NCc1ccco1 (stereo not shown) [BC20242] | + (“+” >25% increase in NMNAT2 luciferase activity at >25 μM.) |
| Cc1ccc(C)c(Cn2c3c(c4ccccc42)CN(C(=O)NCc2ccco2)CC3)c1 [BC20243] | +++ (“+++” >25% increase in NMNAT2 luciferase activity at ≤1 μM.) |
| Cc1c(C)n(Cc2ccccc2F)c2ccc(C(=O)NC(C)Cc3ccco3)cc12 (stereo not shown) [BC20244] | + (“+” >25% increase in NMNAT2 luciferase activity at >25 μM.) |
| Cc1c(C)n(Cc2ccccc2F)c2ccc(C(=O)NCCc3ccccc3)cc12 [BC20245] | ++ (“++” >25% increase in NMNAT2 luciferase activity at >1 μM ≤25 μM.) |
| Cc1cccc(NC(=O)c2ccc3c(c2)c(C)c(C)n3Cc2ccccc2F)c1C [BC20246] | ++ (“++” >25% increase in NMNAT2 luciferase activity at >1 μM ≤25 μM.) |
| Cc1c(C)n(Cc2ccccc2F)c2ccc(C(=O)N3CCc4occc4C3)cc12 [BC20247] | + (“+” >25% increase in NMNAT2 luciferase activity at >25 μM.) |
| Cc1c(C)n(Cc2cccc(F)c2)c2ccc(C(=O)NCCc3ccccc3)cc12 [BC20248] | ++ (“++” >25% increase in NMNAT2 luciferase activity at >1 μM ≤25 μM.) |
| Cc1cccc(NC(=O)c2ccc3c(c2)c(C)c(C)n3Cc2cccc(F)c2)c1C [BC20249] | +++ (“+++” >25% increase in NMNAT2 luciferase activity at ≤1 μM.) |
| Cc1c(C)n(Cc2cccc(F)c2)c2ccc(C(=O)N3CCc4occc4C3)cc12 [BC20250] | ++ (“++” >25% increase in NMNAT2 luciferase activity at >1 μM ≤25 μM.) |
| Cc1ccccc1Cn1c(C)c(C)c2cc(C(=O)NCCc3ccccc3)ccc21 [BC20251] | ++ (“++” >25% increase in NMNAT2 luciferase activity at >1 μM ≤25 μM.) |
| Cc1ccc(C)c(Cn2c3c(c4ccccc42)CN(C(=O)NCC2CCCO2)CC3)c1 (stereo not shown) [BC20252] | + (“+” >25% increase in NMNAT2 luciferase activity at >25 μM.) |
| Cc1ccc(C)c(Cn2c3c(c4ccccc42)CN(C(=O)NCc2cccc(F)c2)CC3)c1 [BC20253] | + (“+” >25% increase in NMNAT2 luciferase activity at >25 μM.) |
| Cc1ccc(C)c(Cn2c3c(c4ccccc42)CN(C(=O)NCCc2ccccc2)CC3)c1 [BC20254] | ++ (“++” >25% increase in NMNAT2 luciferase activity at >1 μM ≤25 μM.) |
| Cc1ccc(C)c(Cn2c3c(c4ccccc42)CN(C(=O)Nc2cccc(C)c2C)CC3)c1 [BC20255] | + (“+” >25% increase in NMNAT2 luciferase activity at >25 μM.) |
| O=C(NCc1ccccc1F)C1CCc2c(c3ccccc3n2Cc2cccc(F)c2)C1 (stereo not shown) [BC20256] | + (“+” >25% increase in NMNAT2 luciferase activity at >25 μM.) |
| O=C(c1ccco1)N1CCN(C(=O)C2CCc3c(c4ccccc4n3Cc3cccc(F)c3)C2)CC1 (stereo not shown) [BC20257] | + (“+” >25% increase in NMNAT2 luciferase activity at >25 μM.) |
| O=C(NCc1cccnc1)C1CCc2c(c3ccccc3n2Cc2cccc(F)c2)C1 (stereo not shown) [BC20258] | ++ (“++” >25% increase in NMNAT2 luciferase activity at >1 μM ≤25 μM.) |

| SMILES | E: compound efficacy for NMNAT2 activation (concentration giving >25% increase in NMNAT2 luciferase activity) |
| --- | --- |
| CCCCN(CC)Cc1ccc(CNC(=O)C2CCc3c(c4ccccc4n3Cc3cccc(F)c3)C2)o1 (stereo not shown) [BC20259] | +++ (“+++” >25% increase in NMNAT2 luciferase activity at ≤1 μM.) |
| O=C(C1CCc2c(c3ccccc3n2Cc2cccc(F)c2)C1)N1CCc2occc2C1 (stereo not shown) [BC20260] | ++ (“++” >25% increase in NMNAT2 luciferase activity at >1 μM ≤25 μM.) |
| Cc1cccc(CN2CCc3cn(Cc4cc(C)ccc4C)c4cccc(c34)C2=O)c1 [BC20261] | + (“+” >25% increase in NMNAT2 luciferase activity at >25 μM.) |
| O=C(Cn1c2c(c3ccccc31)CC(C(=O)NCCc1ccccc1)CC2)NCc1ccco1 (stereo not shown) [BC20262] | ++ (“++” >25% increase in NMNAT2 luciferase activity at >1 μM ≤25 μM.) |
| Cc1c(C)n(Cc2ccccc2F)c2ccc(C(=O)N(CCCN3CCOCC3)Cc3ccco3)cc12 [BC20263] | ++ (“++” >25% increase in NMNAT2 luciferase activity at >1 μM ≤25 μM.) |
| Cc1c(C)n(Cc2cccc(F)c2)c2ccc(C(=O)N(CCCN3CCOCC3)Cc3ccco3)cc12 [BC20264] | ++ (“++” >25% increase in NMNAT2 luciferase activity at >1 μM ≤25 μM.) |
| Cc1c(C)n(Cc2cccc(F)c2)c2ccc(C(=O)NCc3cccnc3)cc12 [BC20265] | ++ (“++” >25% increase in NMNAT2 luciferase activity at >1 μM ≤25 μM.) |
| CCCCN(CC)Cc1ccc(CNC(=O)c2ccc3c(c2)c(C)c(C)n3Cc2ccccc2C)o1 [BC20266] | ++ (“++” >25% increase in NMNAT2 luciferase activity at >1 μM ≤25 μM.) |
| Cc1ccc(Cn2cc(C3CCN(Cc4ccncc4)C(=O)C3)c3ccccc32)cc1 (stereo not shown) [BC20267] | ++ (“++” >25% increase in NMNAT2 luciferase activity at >1 μM ≤25 μM.) |
| Cc1ccc(Cn2cc(C3CCN(CCc4cccc(C)c4)C(=O)C3)c3ccccc32)cc1 (stereo not shown) [BC20268] | + (“+” >25% increase in NMNAT2 luciferase activity at >25 μM.) |
| Cc1ccc(C)c(Cn2cc3c4c(cccc42)C(=O)N(Cc2ccccc2F)CC3)c1 [BC20269] | + (“+” >25% increase in NMNAT2 luciferase activity at >25 μM.) |
| Cc1ccc(C)c(Cn2cc3c4c(cccc42)C(=O)N(Cc2cccc(F)c2)CC3)c1 [BC20270] | + (“+” >25% increase in NMNAT2 luciferase activity at >25 μM.) |
| Cc1ccc(C)c(Cn2cc3c4c(cccc42)C(=O)N(Cc2ccccc2C)CC3)c1 [BC20271] | + (“+” >25% increase in NMNAT2 luciferase activity at >25 μM.) |
| COc1ccc(CCN2CCc3cn(Cc4cc(C)ccc4C)c4cccc(c34)C2=O)cc1 [BC20272] | + (“+” >25% increase in NMNAT2 luciferase activity at >25 μM.) |
| Cc1ccc(C)c(Cn2cc3c4c(cccc42)C(=O)N(CCc2ccccc2C)CC3)c1 [BC20273] | + (“+” >25% increase in NMNAT2 luciferase activity at >25 μM.) |
| O=C1c2cccc3c2c(cn3Cc2cccc(F)c2)CCN1Cc1ccccc1F [BC20274] | + (“+” >25% increase in NMNAT2 luciferase activity at >25 μM.) |
| O=C1c2cccc3c2c(cn3Cc2cccc(F)c2)CCN1Cc1cccc(F)c1 [BC20275] | + (“+” >25% increase in NMNAT2 luciferase activity at >25 μM.) |
